# Assay results: US20100144819A1, “Synergistic Methods for Control of Pests” (FMC A[…]. LTD., priority 2008, published 2010)
# Assays:
# [1] = tested on: black house spider (Badumna insignis); assay: Black house spider mortality on treated pine plywood; format: in vivo; conditions: suspension concentrate diluted in water, 24 h
# Excerpt: (§1) The presence of a synergistic effect between the two active ingredients is established with the aid of the Colby equation (see Colby, S. R., “Calculating Synergistic and Antagonistic Responses of Herbicide Combinations”, Weeds 1967, 15, pg 20-22): E=X+Y−(XY/100).
# (§2) Using the method of Colby, the presence of asynergistic interaction between two active ingredients is established by first calculating the expected activity, ‘E’, of the mixture based on activities of the two components applied alone. If ‘E’ is lower than the observed activity, synergy is present. In the equation above, ‘X’ is the percentage control observed when bifenthrin applied alone at rate ‘x’. The ‘Y’ term is percentage control observed when fipronil applied alone at rate ‘y’. The equation calculates ‘E’, the expected activity of the mixture of ‘X’ at rate ‘x’ with ‘Y’ at rate ‘y’ if their effects are strictly additive and no interaction has occurred.
# The compositions of the present invention were tested for black house spider (Badumna insignis) activity in the following manner:
# Formulations of the test compounds were made as follows: • 1).
# The testing was conducted on pine plywood surfaces that had dimensions of 20 cm×20 cm. The above formulations were diluted in water to achieve the desired concentration rate in grams of active ingredient per liter prior to application to the pine plywood. Each treatment was applied using an airbrush sprayer and compressed air as the propellant. The equipment was calibrated prior to use and the treatments were applied to the pine plywood surfaces at a rate of 1 L/10 m^2 (4 mL of final test solution per 20 cm×20 cm pine plywood surface)'. For example, in order to obtain a application rate of […] of active ingredient per 10 m^2, 1.25 mL of the fipronil formulation 1) which contained 100 gram per liter suspension concentrate formulation of fipronil, was diluted in 1 liter of water to make a final test solution. Four mL of the final test solution was sprayed onto the pine plywood surface. The treated pine plywood was allowed to air dry at ambient temperature by storing horizontally away from direct sunlight. Three black house spiders, medium to large in size collected from the field 1 to 2 days prior to testing, were placed separately under untreated portion cups (7 cm diameter by 7 cm deep) on the treated pine plywood surfaces. The untreated portion cups provided an opportunity for the spiders to seek an untreated area. The spiders were assessed after 24 hours exposure by counting the number of alive and the number of knocked down/dead spiders. There were three replications of each treatment.
# [2] = tested on: German cockroach (Blatella germanica); assay: German cockroach mortality on treated filter paper; format: in vivo, Blattella germanica; conditions: 24 h
# Excerpt: as §1, §2
# The compositions of the present invention were tested for German cockroach (Blatella germanica) activity in the following manner.
# Test solutions were made by dissolving technical grade bifenthrin and fipronil in acetone to provide appropriate rates of application of bifenthrin and fipronil alone, as well as combinations of bifenthrin and fipronil. The active ingredient concentrations tested were from 50 parts per million (0.05 mg of active ingredient/mL or 0.05 g/L) to 500 parts per million (0.5 mg of active ingredient/mL or 0.5 g/L), four replicates per rate. In a fume cabinet, one milliliter of a test solution was applied to a 9 cm Whatman® 2 qualitative filter paper using a calibrated pipette. The application started at the center of the filter paper with individual drops being applied in an outward circular motion so that the entire filter paper was uniformly treated. Acetone only (one mL) was applied in the same manner to provide an untreated control (UTC). The treated filter papers were allowed to dry for two hours. The dried, treated or untreated filter paper was placed into a plastic Petri dish and ten late instar, healthy and active German cockroaches (Blattella germanica) were momentarily immobilized using carbon dioxide and then placed onto the filter paper. The lid of each Petri dish was put on to contain the cockroaches. The Petri dishes were maintained at a temperature of 25° C. to 30° C. at ambient relative humidity out of direct sunlight. German cockroach mortality was assessed after 24 hours by counting the number of alive and the number of knocked down/dead cockroaches.
# In order to compare the pesticidal effectiveness of the individual and combination treatments the LC 50 and LC 90 values (lethal concentration in ppm that would effectively knock down/kill 50% or 90% of the test pests) were calculated. In calculating the LC values for the various mixtures of bifenthrin and fipronil, probit analysis was conducted on the fipronil concentration of the mixture. […] The values calculated from the data of Table 1 are in Table 1A below.
# [3] = tested on: American cockroach (Periplaneta americana); assay: American cockroach mortality on treated filter paper; format: in vivo; conditions: 24 h
# Excerpt: as §1, §2
# The compositions of the present invention were tested for American cockroach (Periplaneta americana) activity in the following manner:
# Test solutions were made by dissolving technical grade bifenthrin and fipronil in acetone to provide appropriate rates of application of bifenthrin and fipronil alone, as well as combinations of bifenthrin and fipronil. The active ingredient concentrations tested were from 10 part per million (0.01 mg of active ingredient/mL or 0.01 g/L) to 1000 parts per million (1.0 mg of active ingredient/mL or 1.0 g/L), four replicates per rate. In a fume cabinet, one milliliter of a test solution was applied to a 9 cm Whatman® 2 qualitative filter paper using a calibrated pipette. The application started at the center of the filter paper with individual drops being applied in an outward circular motion so that the entire filter paper was uniformly treated. Acetone only (one mL) was applied in the same manner to provide an untreated control (UTC). The treated filter papers were allowed to dry for two hours. The dried, treated or untreated filter paper was placed into a plastic cup having a base diameter of 90 mm, in which the upper portion of the walls of the plastic cup were coated with a fluoropolymer resin (PFTE-30) insect barrier (Fluoron® available from BioQuip Products Inc.) to prevent the insects from climbing out of the container. Ten late instar, healthy and active American cockroaches (Periplaneta americana) were momentarily immobilized using carbon dioxide and then placed onto the filter paper. The top of the plastic containers were covered with gauze to contain the cockroaches. The plastic containers were maintained at a temperature of 25° C. to 30° C. at ambient relative humidity out of direct sunlight. American cockroach mortality was assessed after 24 hours by counting the number of alive and the number of knocked down/dead cockroaches.
# In order to compare the pesticidal effectiveness of the individual and combination treatments the LC 50 and LC 90 values (lethal concentration in ppm that would effectively knock down/kill 50% or 90% of the test pests) were calculated. In calculating the LC values for the various mixtures of bifenthrin and fipronil, probit analysis was conducted on the bifenthrin in concentration of the mixture. […] The values calculated from the data of Table 2 are in Table 2A below.
# [4] = probit analysis of Table 1 data, mixtures as bifenthrin:fipronil
# [5] = probit analysis of Table 2 data, mixtures as bifenthrin:fipronil
compound,measurement,setting,value
"Cc1c(COC(=O)[C@@H]2[C@H](/C=C(\Cl)C(F)(F)F)C2(C)C)cccc1-c1ccccc1 (racemic) [Bifenthrin, 2-methylbiphenyl-3-ylmethyl (Z)-(1RS)-cis-3-(2-chloro-3,3,3-trifluoroprop-1-enyl)-2,2-dimethylcyclopropanecarboxylate]",Observed % Control,[1]; 0.25 g ai/L at 1 L/10 m^2,88.9%
same,Observed % Control,[1]; 0.5 g ai/L at 1 L/10 m^2,88.9%
same,% Observed Control,[2]; 100 ppm (0.1 mg/mL),2.5%
same,Mortality Rep 1 dead/alive,[2]; 100 ppm (0.1 mg/mL),0/10
same,Mortality Rep 2 dead/alive,[2]; 100 ppm (0.1 mg/mL),0/10
same,Mortality Rep 3 dead/alive,[2]; 100 ppm (0.1 mg/mL),0/10
same,Mortality Rep 4 dead/alive,[2]; 100 ppm (0.1 mg/mL),1/9
same,% Observed Control,[2]; 250 ppm (0.25 mg/mL),90%
same,Mortality Rep 1 dead/alive,[2]; 250 ppm (0.25 mg/mL),9/1
same,Mortality Rep 2 dead/alive,[2]; 250 ppm (0.25 mg/mL),9/1
same,Mortality Rep 3 dead/alive,[2]; 250 ppm (0.25 mg/mL),9/1
same,Mortality Rep 4 dead/alive,[2]; 250 ppm (0.25 mg/mL),9/1
same,% Observed Control,[2]; 500 ppm (0.5 mg/mL),97.5%
same,Mortality Rep 1 dead/alive,[2]; 500 ppm (0.5 mg/mL),10/0
same,Mortality Rep 2 dead/alive,[2]; 500 ppm (0.5 mg/mL),10/0
same,Mortality Rep 3 dead/alive,[2]; 500 ppm (0.5 mg/mL),10/0
same,Mortality Rep 4 dead/alive,[2]; 500 ppm (0.5 mg/mL),9/1
same,LC 50,[2]; [4],193 ppm
same,LC 90,[2]; [4],301 ppm
same,% Observed Control,[3]; 100 ppm (0.1 mg/mL),2.5%
same,Mortality Rep 1 dead/alive,[3]; 100 ppm (0.1 mg/mL),1/9
same,Mortality Rep 2 dead/alive,[3]; 100 ppm (0.1 mg/mL),0/10
same,Mortality Rep 3 dead/alive,[3]; 100 ppm (0.1 mg/mL),0/10
same,Mortality Rep 4 dead/alive,[3]; 100 ppm (0.1 mg/mL),0/10
same,% Observed Control,[3]; 125 ppm (0.125 mg/mL),45%
same,Mortality Rep 1 dead/alive,[3]; 125 ppm (0.125 mg/mL),1/9
same,Mortality Rep 2 dead/alive,[3]; 125 ppm (0.125 mg/mL),10/0
same,Mortality Rep 3 dead/alive,[3]; 125 ppm (0.125 mg/mL),7/3
same,Mortality Rep 4 dead/alive,[3]; 125 ppm (0.125 mg/mL),0/10
same,% Observed Control,[3]; 200 ppm (0.2 mg/mL),10%
same,Mortality Rep 1 dead/alive,[3]; 200 ppm (0.2 mg/mL),0/10
same,Mortality Rep 2 dead/alive,[3]; 200 ppm (0.2 mg/mL),0/10
same,Mortality Rep 3 dead/alive,[3]; 200 ppm (0.2 mg/mL),0/10
same,Mortality Rep 4 dead/alive,[3]; 200 ppm (0.2 mg/mL),4/6
same,% Observed Control,[3]; 250 ppm (0.25 mg/mL),12.5%
same,Mortality Rep 1 dead/alive,[3]; 250 ppm (0.25 mg/mL),1/9
same,Mortality Rep 2 dead/alive,[3]; 250 ppm (0.25 mg/mL),1/9
same,Mortality Rep 3 dead/alive,[3]; 250 ppm (0.25 mg/mL),2/8
same,Mortality Rep 4 dead/alive,[3]; 250 ppm (0.25 mg/mL),1/9
same,% Observed Control,[3]; 400 ppm (0.4 mg/mL),22.5%
same,Mortality Rep 1 dead/alive,[3]; 400 ppm (0.4 mg/mL),1/9
same,Mortality Rep 2 dead/alive,[3]; 400 ppm (0.4 mg/mL),2/8
same,Mortality Rep 3 dead/alive,[3]; 400 ppm (0.4 mg/mL),4/6
same,Mortality Rep 4 dead/alive,[3]; 400 ppm (0.4 mg/mL),2/8
same,% Observed Control,[3]; 500 ppm (0.5 mg/mL),25%
same,Mortality Rep 1 dead/alive,[3]; 500 ppm (0.5 mg/mL),0/10
same,Mortality Rep 2 dead/alive,[3]; 500 ppm (0.5 mg/mL),5/5
same,Mortality Rep 3 dead/alive,[3]; 500 ppm (0.5 mg/mL),2/8
same,Mortality Rep 4 dead/alive,[3]; 500 ppm (0.5 mg/mL),3/7
same,% Observed Control,[3]; 1000 ppm (1.0 mg/mL),97.5%
same,Mortality Rep 1 dead/alive,[3]; 1000 ppm (1.0 mg/mL),10/0
same,Mortality Rep 2 dead/alive,[3]; 1000 ppm (1.0 mg/mL),10/0
same,Mortality Rep 3 dead/alive,[3]; 1000 ppm (1.0 mg/mL),10/0
same,Mortality Rep 4 dead/alive,[3]; 1000 ppm (1.0 mg/mL),9/1
same,LC 50,[3]; [5],906 ppm
same,LC 90,[3]; [5],1618 ppm
